The target in assay [1] is T1, human A2A receptors (Homo sapiens, UniProt P29274).
T1 construct: expressed in transfected cells; host or cells: HEK293
Description: Inhibition of human A2A receptor in recombinant HEK293 cells, cAMP quantification (HTRF). It counts as cell-based. Particulars: read-out: A2A (Category). Summed up:
(§1)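 Receptor function was assessed by measuring cAMP, the second messenger for adenosine receptors. Cells were incubated for 15 min, after which HTRF reagents were added and cellular cAMP levels were read.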
In general terms: In TR-FRET formats the signal depends on donor and acceptor labels being close together.

Assay [2] addresses T2, human A2B receptors (Homo sapiens, UniProt P29275).
T2 construct: expressed in transfected cells; host or cells: HEK293
T2 sequence (P29275 1-332): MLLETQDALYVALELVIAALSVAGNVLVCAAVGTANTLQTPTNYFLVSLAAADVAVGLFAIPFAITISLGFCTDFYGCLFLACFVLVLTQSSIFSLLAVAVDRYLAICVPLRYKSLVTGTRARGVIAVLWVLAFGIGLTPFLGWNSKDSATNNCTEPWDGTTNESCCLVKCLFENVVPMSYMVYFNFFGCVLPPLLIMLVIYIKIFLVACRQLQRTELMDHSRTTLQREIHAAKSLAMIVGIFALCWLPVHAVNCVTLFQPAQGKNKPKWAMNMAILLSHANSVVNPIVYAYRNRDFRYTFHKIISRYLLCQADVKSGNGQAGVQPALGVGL
Description: Inhibition of human A2B receptor in recombinant HEK293 cells, cAMP quantification (HTRF). The settings on record: read-out: A2B (Category). It counts as cell-based. The method, boiled down: as §1

T1 sequence (P29274 whole entry): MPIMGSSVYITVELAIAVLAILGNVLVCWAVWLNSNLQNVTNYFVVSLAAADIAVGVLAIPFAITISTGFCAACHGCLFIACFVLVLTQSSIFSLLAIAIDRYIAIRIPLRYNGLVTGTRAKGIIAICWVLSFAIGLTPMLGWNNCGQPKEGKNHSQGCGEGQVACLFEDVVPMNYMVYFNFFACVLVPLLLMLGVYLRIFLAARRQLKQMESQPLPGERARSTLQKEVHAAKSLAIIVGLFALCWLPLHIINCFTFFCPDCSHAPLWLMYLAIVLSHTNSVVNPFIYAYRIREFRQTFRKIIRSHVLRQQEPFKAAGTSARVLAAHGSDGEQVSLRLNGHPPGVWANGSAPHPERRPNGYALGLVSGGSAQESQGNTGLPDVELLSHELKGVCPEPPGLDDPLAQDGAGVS

For `CS(=O)(=O)Cn1nc(Nc2ccc(F)cc2)c2cnc(C(=O)N3[C@@H]4CC[C@H]3C[C@@H](O)C4)cc21` [Compound 30, [3-(4-fluoroanilino)-1-(methylsulfonylmethyl)pyrazolo[4,3-c]pyridin-6-yl]-(3-endo-hydroxy-8-azabicyclo[3.2.1]octan-8-yl)methanone], the IC50 in assay [1] is under 100 nM; in assay [2], under 1000 nM.

In the case of `O=C(c1cc2c(cn1)c(Nc1ccncn1)nn2CC(F)(F)F)N1CCCOCC1` [Compound 73, [1,4]Oxazepan-4-yl-[3-(pyrimidin-4-ylamino)-1-(2,2,2-trifluoro-ethyl)-1H-pyrazolo[4,3-c]pyridin-6-yl]-methanone], the IC50 in assay [1] was under 100 nM; in assay [2] it was under 1000 nM.

Take `O=C(c1cc2c(cn1)c(Nc1ccc(F)cn1)nn2CC(F)(F)F)N1[C@@H]2CC[C@H]1C[C@@H](O)C2` [Compound 107, [3-[(5-fluoro-2-pyridyl)amino]-1-(2,2,2-trifluoroethyl)pyrazolo[4,3-c]pyridin-6-yl]-(3-endo-hydroxy-8-azabicyclo[3.2.1]octan-8-yl)methanone]: the IC50 in assay [1] and in assay [2] was under 100 nM throughout.

Regarding `[2H]C1([2H])COCCN(C(=O)c2cc3c(cn2)c(Nc2ccc(F)cc2)nn3CC(F)(F)F)C1` [Compound 41, (6,6-dideuterio-1,4-oxazepan-4-yl)-[3-(4-fluoroanilino)-1-(2,2,2-trifluoroethyl)pyrazolo[4,3-c]pyridin-6-yl]methanone], the IC50 in assay [1] was under 100 nM; in assay [2], under 1000 nM.

For the molecule `CC(C)C1(O)CCN(C(=O)c2cc3c(cn2)c(Nc2cc(F)ccn2)nn3CC(F)(F)F)CC1` [Compound 114, [3-(4-Fluoro-pyridin-2-ylamino)-1-(2,2,2-trifluoro-ethyl)-1H-pyrazolo[4,3-c]pyridin-6-yl]-(4-isopropyl-4-hydroxypiperidin-1-yl)-methanone], the IC50 in assay [1] and in assay [2] was under 100 nM in each case.

Regarding `O=C(c1cc2c(cn1)c(Nc1cnccn1)nn2CC(F)(F)F)N1CCCOCC1` [Compound 61, 1,4-oxazepan-4-yl-[3-(pyrazin-2-ylamino)-1-(2,2,2-trifluoroethyl)pyrazolo[4,3-c]pyridin-6-yl]methanone], the IC50 in assay [1] and in assay [2] was under 100 nM each time.

Turning to `[2H]C1([2H])COCCN(C(=O)c2cc3c(cn2)c(Nc2cccc(F)c2)nn3CC(F)(F)F)C1` [Compound 40, (6,6-dideuterio-1,4-oxazepan-4-yl)-[3-(3-fluoroanilino)-1-(2,2,2-trifluoroethyl)pyrazolo[4,3-c]pyridin-6-yl]methanone], the IC50 in assay [1] and in assay [2] was under 100 nM in each case.

As for `O=C(c1cc2c(cn1)c(Nc1cc(F)ccn1)nn2CC(F)(F)F)N1CCC(F)CC1` [Compound 116, (4-Fluoro-piperidin-1-yl)-[3-(4-fluoro-pyridin-2-ylamino)-1-(2,2,2-trifluoro-ethyl)-1H-pyrazolo[4,3-c]pyridin-6-yl]-methanone], the IC50 in assay [1] and in assay [2] was under 100 nM in each case.

Regarding `O=C(c1cc2c(cn1)c(Nc1ccc(Cl)cn1)nn2CC(F)(F)F)N1CCCOCC1` [Compound 48, [3-[(5-chloro-2-pyridyl)amino]-1-(2,2,2-trifluoroethyl)pyrazolo[4,3-c]pyridin-6-yl]-(1,4-oxazepan-4-yl)methanone], the IC50 in assay [1] and in assay [2] was under 100 nM in each case.

For `[2H]C1([2H])COCCN(C(=O)c2cc3c(cn2)c(Nc2ccccn2)nn3CC(F)(F)F)C1` [Compound 59, (6,6-dideuterio-1,4-oxazepan-4-yl)-[3-(2-pyridylamino)-1-(2,2,2-trifluoroethyl)pyrazolo[4,3-c]pyridin-6-yl]methanone], the IC50 in assay [1] and in assay [2] was under 100 nM in each case.

For the molecule `O=C(c1cc2c(cn1)c(Nc1cccc(=O)[nH]1)nn2CC(F)(F)F)N1CCCOCC1` [Compound 86, 6-[6-([1,4]Oxazepane-4-carbonyl)-1-(2,2,2-trifluoro-ethyl)-1H-pyrazolo[4,3-c]pyridin-3-ylamino]-1H-pyridin-2-one], the IC50 is under 100 nM in assay [1] and under 1000 nM in assay [2].

As for `O=C(c1cc2c(cn1)c(Nc1cc(F)ccn1)nn2CC(F)(F)F)N1CCC(O)CC1` [Compound 111, [3-[(4-fluoro-2-pyridyl)amino]-1-(2,2,2-trifluoroethyl)pyrazolo[4,3-c]pyridin-6-yl]-(4-hydroxypiperidin-1-yl)methanone], the IC50 in assay [1] and in assay [2] was under 100 nM each time.

With `CS(=O)(=O)Cn1nc(Nc2cccc(F)c2)c2cnc(C(=O)N3[C@@H]4CC[C@H]3C[C@@H](O)C4)cc21` [Compound 31, [3-(3-fluoroanilino)-1-(methylsulfonylmethyl)pyrazolo[4,3-c]pyridin-6-yl]-(3-endo-hydroxy-8-azabicyclo[3.2.1]octan-8-yl)methanone], the IC50 in assay [1] and in assay [2] was under 100 nM each time.

Take `O=C(c1cc2c(cn1)c(Nc1cc(F)cc(F)c1)nn2CC(F)(F)F)N1CCCOCC1` [Compound 15, [3-(3,5-difluoroanilino)-1-(2,2,2-trifluoroethyl)pyrazolo[4,3-c]pyridin-6-yl]-(1,4-oxazepan-4-yl)methanone]: the IC50 in assay [1] was under 100 nM; in assay [2] it was under 1000 nM.

For the molecule `O=C(c1cc2c(cn1)c(Nc1ccc(F)cn1)nn2CC(F)(F)F)N1CCOC[C@@H](F)C1` [Compound 93, [(6S)-6-fluoro-1,4-oxazepan-4-yl]-[3-[(5-fluoro-2-pyridyl)amino]-1-(2,2,2-trifluoroethyl)pyrazolo[4,3-c]pyridin-6-yl]methanone], the IC50 in assay [1] and in assay [2] was under 100 nM each time.

Consider `O=C(c1cc2c(cn1)c(Nc1cccc(F)c1)nn2CC(F)(F)F)N1CCC(O)CC1` [Compound 23, [3-(3-fluoroanilino)-1-(2,2,2-trifluoroethyl)pyrazolo[4,3-c]pyridin-6-yl]-(4-hydroxy-1-piperidyl)methanone], for which the IC50 in assay [1] and in assay [2] was under 100 nM each time.

`O=C(c1cc2c(cn1)c(Nc1cc(F)c(Cl)cn1)nn2CC(F)(F)F)N1CCCOCC1` [Compound 71, [3-[(5-chloro-4-fluoro-2-pyridyl)amino]-1-(2,2,2-trifluoroethyl)pyrazolo[4,3-c]pyridin-6-yl]-(1,4-oxazepan-4-yl)methanone]: the IC50 in assay [1] and in assay [2] was under 100 nM throughout.

In the case of `CC1(O)CCN(C(=O)c2cc3c(cn2)c(Nc2cnccn2)nn3CC(F)(F)F)CC1` [Compound 123, [3-(pyrazin-2ylamino)-1-(2,2,2-trifluoro-ethyl)-1H-pyrazolo[4,3-c]pyridin-6-yl]-(4-hydroxy-4-methyl-piperidin-1-yl)-methanone], the IC50 in assay [1] and in assay [2] was under 1000 nM in each case.

As for `O=C(c1cc2c(cn1)c(Nc1cc(C(F)(F)F)ccn1)nn2CC(F)(F)F)N1CCCOCC1` [Compound 62, 1,4-oxazepan-4-yl-[1-(2,2,2-trifluoroethyl)-3-[[4-(trifluoromethyl)-2-pyridyl]amino]pyrazolo[4,3-c]pyridin-6-yl]methanone], the IC50 is under 100 nM in assay [1] and under 1000 nM in assay [2].

Take `O=C(c1cc2c(cn1)c(Nc1ccc(F)cc1)nn2CC(F)(F)F)N1CC2CCC(C1)O2` [Compound 21, [3-(4-fluoroanilino)-1-(2,2,2-trifluoroethyl)pyrazolo[4,3-c]pyridin-6-yl]-(8-oxa-3-azabicyclo[3.2.1]octan-3-yl)methanone]: the IC50 in assay [1] and in assay [2] was under 100 nM each time.

Consider `O=C(c1cc2c(cn1)c(Nc1cc(F)ccn1)nn2CC(F)(F)F)N1[C@@H]2CC[C@H]1C[C@@H](O)C2` [Compound 120, [3-[(4-fluoro-2-pyridyl)amino]-1-(2,2,2-trifluoroethyl)pyrazolo[4,3-c]pyridin-6-yl]-(3-endo-hydroxy-8-azabicyclo[3.2.1]octan-8-yl)methanone], for which the IC50 in assay [1] and in assay [2] was under 100 nM in each case.

As for `O=C(c1cc2c(cn1)c(Nc1cnccn1)nn2CC(F)(F)F)N1CCC(O)CC1` [Compound 74, (4-Hydroxy-piperidin-1-yl)-[3-(pyrazin-2-ylamino)-1-(2,2,2-trifluoro-ethyl)-1H-pyrazolo[4,3-c]pyridin-6-yl]-methanone], the IC50 in assay [1] and in assay [2] was under 100 nM throughout.

For the molecule `O=C(c1cc2c(cn1)c(Nc1ccc(F)cn1)nn2CC(F)(F)F)N1CCC[C@H](O)C1` [Compound 98, [(3S)-3-hydroxy-piperidin-1-yl]-[3-(5-Fluoro-pyridin-2-ylamino)-1-(2,2,2-trifluoro-ethyl)-1H-pyrazolo[4,3-c]pyridin-6-yl]methanone], the IC50 was under 100 nM in assay [1] and under 1000 nM in assay [2].

Take `COc1ccnc(Nc2nn(CC(F)(F)F)c3cc(C(=O)N4CCCOCC4)ncc23)c1` [Compound 63, [3-[(4-methoxy-2-pyridyl)amino]-1-(2,2,2-trifluoroethyl)pyrazolo[4,3-c]pyridin-6-yl]-(1,4-oxazepan-4-yl)methanone]: the IC50 in assay [1] and in assay [2] was under 100 nM throughout.

On to `CS(=O)(=O)Cn1nc(Nc2ccc(F)cc2)c2cnc(C(=O)N3CCCOCC3)cc21` [Compound 27, [3-(4-fluoroanilino)-1-(methylsulfonylmethyl)pyrazolo[4,3-c]pyridin-6-yl]-(1,4-oxazepan-4-yl)methanone], for which the IC50 in assay [1] is under 100 nM; in assay [2], under 1000 nM.

The values are drawn from patent US12194051B2, “5-azaindazole derivatives as adenosine receptor antagonists” (MERCK PATENT GMBH, priority 2018, dated 2025).
